Measured values from patent publication US20260240845A1, “METHODS FOR TREATING OR PREVENTING CORONAVIRUS INFECTION SKELETAL SEQUELAE” (priority 2023, published 2026).
Entries after “also recorded” stand apart in the source; their conditions may differ.

Key:
[1] = test system: SARS-COV-2-infected hamsters; design: species or system golden Syrian hamsters (Mesocricetus auratus); conditions: hamster, in vivo
[2] = test system: mice injected with SP RBD; design: species or system Balb/c mice; conditions: mouse, in vivo
C28/12 = test: Rescue effect of macitentan on SP RBD-induced oxidative stress and mitochondrial dynamics in chondrocytes (CellROX, MitoTracker); type: cell-based, human; conditions: C28/12 pre-treated with 10 μM Macitentan for 30 minutes, then SP RBD 10 μg/ml for 1 h
Protocol: Chondrocyte cell lines C28/12 (human), ATDC5 (mouse) and human umbilical vein endothelial cells (HUVEC) were received as gifts from Prof. Danny Chan from the University of Hong Kong, Prof. Limin Rong from Sun Yat-Sen University and Prof.
Mo Yang from the Hong Kong Polytechnic University respectively. Both chondrocyte cell lines were maintained in DMEM/F12 culture medium supplemented with 5% heat-inactivated FBS, 50 U ml^−1 penicillin and 50 μg ml-^1 streptomycin. HUVEC were cultured in endothelial cell medium with 1% endothelial cell growth supplement and 1% antibiotic solution (ScienCell).
To investigate the rescue effect of Macitentan on RBD-induced oxidative stress accumulation and change in mitochondrial dynamics, cells seeded on coverslips were pre-treated with 10 μM Macitentan for 30 minutes before adding RBD for an hour.
To evaluate cellular oxidative stress, CellROX® Deep Red Reagent solution (Invitrogen) was used according to the manufacturer's instructions. Positive signal was visualized by excitation/emission at 640/665 nm. For visualising mitochondrial morphology, we stained the cells using Mito Tracker® Red CMXRos (Invitrogen) with excitation/emission at 579/599 nm. Cells were then counterstained and mounted by ProLong® Gold antifade reagent with 4′, 6-diamidino-2-phenylindole (DAPI). All the images were captured using Leica TCS SPE Confocal microscope.

[3] = test system: SARS-COV-2-infected hamsters; design: species or system golden Syrian hamsters (Mesocricetus auratus); conditions: hamster, in vivo; remark: listed apart in the source

## CCCNS(=O)(=O)Nc1ncnc(OCCOc2ncc(Br)cn2)c1-c1ccc(Br)cc1 [macitentan]
[1]
  BMD in tibial epiphysis (micro-CT): improvement in subchondral bone mass and microstructure; also recorded: significant increase in BMD and BV/TV
  BV/TV in tibial epiphysis (micro-CT): improvement in subchondral bone mass and microstructure; also recorded: significant increase in BMD and BV/TV
  amount of viral spike protein retained (subchondral bone marrow cavity): could reduce the amount of viral spike protein retained
  articular cartilage structure: did not lead to further improvement in articular cartilage structurally
  chondrocyte dropout: slight yet not significant improvement
  cyst formation: slight yet not significant improvement
  expression level of vWF in bone marrow: could effectively lower the expression level of vWF
  number of SP7+ osteoblast progenitors: increased the number of SP7^+ osteoblast progenitors
  number of TRAP+ osteoclasts: without affecting the number of TRAP^+ osteoclasts
  number of senescent chondrocytes in articular cartilage (p16INK4a and HMGB1 staining): effectively lower the number of senescent chondrocytes
  oxidative stress near vessels (4HNE staining): reduction of oxidative stress near vessels
  trabecular number in tibial epiphysis (micro-CT): improvement in subchondral bone mass and microstructure
  trabecular separation in tibial epiphysis (micro-CT): improvement in subchondral bone mass and microstructure
  trabecular thickness in tibial epiphysis (micro-CT): improvement in subchondral bone mass and microstructure
[2]
  SP RBD-induced subchondral bone loss (micro-CT, proximal epiphysis of tibia): rescue effect of macitentan on SP RBD-induced bone loss
  accumulation of senescent chondrocytes (p16INK4a, HMGB1) in articular cartilage: preventing accumulation of senescent chondrocytes
  proteoglycan in articular cartilage (Safranin O/fast green): performed better in terms of preserving proteoglycan
[2]; ip, 0.3 mg/kg
  paw withdrawal threshold / nociceptive tolerance (von Frey filament test): able to attain the same nociceptive tolerance as high dose after 12 days
[2]; ip, 3 mg/kg
  paw withdrawal threshold (von Frey filament test): increase in paw withdrawal threshold after 5 days of treatment; also recorded: faster analgesic effect at the higher dose
C28/12
  SP RBD-induced cellular oxidative stress (CellROX staining): effectively lowered SARS-COV-2 spike protein-induced increase in oxidative stress
  mitochondrial dynamics / morphology (MitoTracker staining): showed restoration of rod-like structures
[3]
  4HNE expression level in bone marrow cavity of subchondral bone (oxidative stress): lowered vWF and 4HNE expression level
  BV/TV (micro-CT): no significant difference
  amount of viral spike protein at local joint tissue (subchondral bone marrow cavity): tended to lower the amount of viral spike protein
  area of the cysts at the osteochondral junction: effectively reducing the area of the cysts
  articular surface roughness: No statistical significance
  collagen loss (Masson's trichrome staining): prevented virus-induced collagen loss
  fibrin exudate at the osteochondral junction: decreasing the fibrin exudate
  number of SP7+ osteoblasts progenitors: without affecting the number of SP7^+ osteoblasts progenitors
  number of TRAP+ osteoclasts in subchondral bone: significantly lower number of TRAP^+ osteoclasts
  number of chondrocytes in articular cartilage: More chondrocytes were observed
  number of cytoplasmic HMGB1 cells in articular cartilage: decrease in the number of nuclear p16^INK4a and cytoplasmic HMGB1 cells
  number of nuclear p16INK4a cells in articular cartilage: decrease in the number of nuclear p16^INK4a
  subchondral BMD (micro-CT): could restore subchondral BMD
  vWF expression level in bone marrow cavity of subchondral bone: lowered vWF and 4HNE expression level
